Measurements: paper PMC4301037, “Identification and Structure–Function Analysis of Subfamily Selective G Protein-Coupled Receptor Kinase Inhibitors” (ACS Chemical Biology, 2014)
pIC50: −log10 of the molar value. Read-outs that look alike come from different tables or passages of the source.

What was measured:
human GRK2S670A = target: T1, human GRK2S670A (Homo sapiens, UniProt P25098, S670A); test: Primary DSF (differential scanning fluorimetry) inhibitor screen, GRK2; assay type: binding; details: 10 μM compound; for ΔTm at 10 µM / ΔTm, primary screen, GRK2: 2 μM kinase, relative to DMSO control; for ΔTm at 10 µM: read-out: ΔTm, primary screen, GRK2; for rank in the primary screen, GRK2: rank ordering of compounds in primary DSF screen
T1 construct: when using full-length kinases as the receptor[37] instead of isolated kinase domains; made in house
T1 sequence (P25098 1-689 S670A): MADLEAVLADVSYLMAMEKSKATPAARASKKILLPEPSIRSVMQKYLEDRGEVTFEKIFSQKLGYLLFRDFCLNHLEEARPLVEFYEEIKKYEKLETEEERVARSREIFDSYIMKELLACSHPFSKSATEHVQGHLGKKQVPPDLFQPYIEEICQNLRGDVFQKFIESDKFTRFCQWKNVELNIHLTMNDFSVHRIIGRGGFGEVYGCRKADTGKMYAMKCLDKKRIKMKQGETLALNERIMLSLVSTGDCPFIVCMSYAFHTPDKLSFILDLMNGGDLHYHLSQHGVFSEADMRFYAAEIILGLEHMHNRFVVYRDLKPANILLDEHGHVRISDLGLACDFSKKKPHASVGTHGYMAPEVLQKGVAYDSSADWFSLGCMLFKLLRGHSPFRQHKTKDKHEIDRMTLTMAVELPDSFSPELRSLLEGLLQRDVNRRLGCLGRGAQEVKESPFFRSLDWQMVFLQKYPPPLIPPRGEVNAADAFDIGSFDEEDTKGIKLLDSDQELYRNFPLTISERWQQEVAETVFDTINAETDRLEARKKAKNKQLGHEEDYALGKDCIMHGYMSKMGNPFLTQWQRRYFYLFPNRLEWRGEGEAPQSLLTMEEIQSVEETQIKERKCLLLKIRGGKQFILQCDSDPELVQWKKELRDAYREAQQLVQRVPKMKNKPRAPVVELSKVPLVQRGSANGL

bovine GRK5 = target: T2, bovine GRK5 (Bos taurus, UniProt P43249); test: Primary DSF inhibitor screen, GRK5; assay type: binding; details: 10 μM compound, 2 μM kinase, relative to DMSO control; read-out: ΔTm, primary screen, GRK5
T2 construct: when using full-length kinases as the receptor[37] instead of isolated kinase domains; made in house
T2 sequence (P43249 whole entry, the tested form may be a part): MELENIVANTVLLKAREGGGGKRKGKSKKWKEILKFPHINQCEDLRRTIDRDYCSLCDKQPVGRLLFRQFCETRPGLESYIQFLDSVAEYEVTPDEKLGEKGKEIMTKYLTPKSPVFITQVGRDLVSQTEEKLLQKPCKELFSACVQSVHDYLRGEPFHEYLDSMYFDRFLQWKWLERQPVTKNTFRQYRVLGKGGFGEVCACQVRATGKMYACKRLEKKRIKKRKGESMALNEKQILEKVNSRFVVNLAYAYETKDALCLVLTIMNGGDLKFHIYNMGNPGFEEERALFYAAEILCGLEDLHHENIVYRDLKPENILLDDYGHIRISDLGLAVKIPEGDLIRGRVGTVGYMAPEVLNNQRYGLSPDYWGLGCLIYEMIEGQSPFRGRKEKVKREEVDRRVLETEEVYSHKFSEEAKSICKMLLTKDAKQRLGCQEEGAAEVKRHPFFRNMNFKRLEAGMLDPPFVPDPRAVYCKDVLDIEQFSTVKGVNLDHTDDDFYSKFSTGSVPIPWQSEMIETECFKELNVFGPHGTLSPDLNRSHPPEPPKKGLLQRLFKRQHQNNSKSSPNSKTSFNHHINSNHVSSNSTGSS

GRK1 [1] = target: T3, GRK1 (Bos taurus, UniProt P28327); test: DSF retest (confirmation), GRK1; assay type: binding, bovine; details: for GRK1 Tm: 0.2 mg mL^–1 kinase; for GRK1 ΔTm: relative to intrinsic melting point of the kinase
T3 construct: Bovine GRK1_1–535, bovine and human GRK2S670A; made in house
T3 sequence (P28327 1-535): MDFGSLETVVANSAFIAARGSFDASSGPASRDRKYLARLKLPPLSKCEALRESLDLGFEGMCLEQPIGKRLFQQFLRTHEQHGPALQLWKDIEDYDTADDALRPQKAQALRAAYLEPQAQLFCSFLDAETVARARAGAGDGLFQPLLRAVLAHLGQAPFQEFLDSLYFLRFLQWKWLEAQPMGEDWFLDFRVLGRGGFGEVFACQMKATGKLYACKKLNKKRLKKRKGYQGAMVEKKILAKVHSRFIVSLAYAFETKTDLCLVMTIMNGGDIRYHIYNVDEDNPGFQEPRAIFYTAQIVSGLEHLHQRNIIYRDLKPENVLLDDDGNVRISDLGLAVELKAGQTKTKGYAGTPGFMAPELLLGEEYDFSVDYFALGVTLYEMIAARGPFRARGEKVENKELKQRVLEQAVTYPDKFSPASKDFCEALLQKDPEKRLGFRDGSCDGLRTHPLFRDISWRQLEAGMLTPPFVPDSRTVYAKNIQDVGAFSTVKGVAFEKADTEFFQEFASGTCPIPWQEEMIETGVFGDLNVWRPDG

GRK2 [2] = target: T4, GRK2 (Homo sapiens, UniProt P25098, S670A); test: DSF retest (confirmation), GRK2; assay type: binding; details: for GRK2 Tm: 0.2 mg mL^–1 kinase; for GRK2 ΔTm: relative to intrinsic melting point of the kinase
T4 construct: made in house
T4 sequence (P25098 1-689 S670A): T1 sequence (P25098 1-689 S670A)

GRK5 [3] = target: T5, GRK5 (Bos taurus, UniProt P43249); test: DSF retest (confirmation), GRK5; assay type: binding, bovine; details: for GRK5 Tm: 0.2 mg mL^–1 kinase; for GRK5 ΔTm: relative to intrinsic melting point of the kinase
T5 construct: when using full-length kinases as the receptor[37] instead of isolated kinase domains; made in house
T5 sequence (P43249 whole entry, the tested form may be a part): as the sequence (P43249 whole entry, the tested form may be a part) above

protein kinase A (PKA) = target: T6, protein kinase A (PKA) (Mus musculus, UniProt P05132); test: DSF retest (confirmation), PKA; assay type: binding; details: for PKA Tm: 0.2 mg mL^–1 kinase; for PKA ΔTm: relative to intrinsic melting point of the kinase
T6 construct: His tag (inferred from pET15b vector and Ni-NTA column) (N); host or cells: E. coli Rosetta(DE3)pLysS
Method: Fourteen compounds (Figure 1a–c), including all GRK2 hits except staurosporine, and the most stabilizing pyrrolopyrimidine-containing compounds were obtained from GSK and retested using DSF on GRKs representing each vertebrate subfamily (GRK1, 2, and 5) (Table 1). […] The ability of these compounds to shift the Tm of the related AGC family kinase member protein kinase A (PKA) was also assessed (Table 1). In no case was ΔTm greater for PKA than for one of the tested GRKs. […]. There was no correlation for GRK1 (Figure 2c).
DSF was conducted using a ThermoFluor plate reader (Johnson & Johnson) in a buffer containing 20 mM HEPES, pH 7.0, 5 mM MgCl2, 2 mM DTT, and 1 mM CHAPS with 0.2 mg mL^–1 final concentration of GRK or PKA and 100 μM 1-anilinonaphthalene-8-sulfonic acid.[14]

GRK1 [4] = target: T3, GRK1; test: In vitro phosphorylation assay (tubulin, 5 μM ATP), GRK1; assay type: biochemical, bovine; details: for IC50: read-out: GRK1 log IC50 (converted)
GRK2 [5] = target: T7, GRK2 (Bos taurus, UniProt P21146, S670A); test: In vitro phosphorylation assay (tubulin, 5 μM ATP), GRK2; assay type: biochemical, bovine; details: for IC50: read-out: GRK2 log IC50 (converted)
T7 construct: made in house
T7 sequence (P21146 1-689 S670A): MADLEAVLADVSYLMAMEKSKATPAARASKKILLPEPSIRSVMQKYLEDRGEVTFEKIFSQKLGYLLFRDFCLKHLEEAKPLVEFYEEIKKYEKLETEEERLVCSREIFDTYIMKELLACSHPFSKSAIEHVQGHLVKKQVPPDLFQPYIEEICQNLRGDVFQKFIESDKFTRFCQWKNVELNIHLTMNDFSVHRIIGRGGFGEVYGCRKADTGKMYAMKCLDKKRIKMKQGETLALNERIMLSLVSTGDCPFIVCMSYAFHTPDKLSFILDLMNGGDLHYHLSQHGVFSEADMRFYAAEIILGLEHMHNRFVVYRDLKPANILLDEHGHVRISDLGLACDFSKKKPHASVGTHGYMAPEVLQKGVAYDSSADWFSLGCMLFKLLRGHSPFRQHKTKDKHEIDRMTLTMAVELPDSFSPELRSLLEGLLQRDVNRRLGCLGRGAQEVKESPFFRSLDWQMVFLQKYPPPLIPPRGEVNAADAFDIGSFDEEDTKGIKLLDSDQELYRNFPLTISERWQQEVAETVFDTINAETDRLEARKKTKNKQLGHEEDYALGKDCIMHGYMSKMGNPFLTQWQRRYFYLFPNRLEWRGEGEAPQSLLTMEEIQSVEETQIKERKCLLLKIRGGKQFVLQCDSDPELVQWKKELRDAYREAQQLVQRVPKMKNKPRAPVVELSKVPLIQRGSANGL

GRK5 [6] = target: T5, GRK5; test: In vitro phosphorylation assay (tubulin, 5 μM ATP), GRK5; assay type: biochemical, bovine; details: for IC50: read-out: GRK5 log IC50 (converted)
PKA = target: T8, PKA (Mus musculus, UniProt P05132); test: PKA inhibition assay (ADP-Glo, CREBtide, 100 μM ATP); assay type: biochemical; details: for IC50: logarithm of IC50 (−3.3 corresponds to 0.5 mM, footnote c), 438 nM PKA, 100 μM ATP, CREBtide, read-out: PKA log IC50 (converted)
T8 construct: His tag (inferred from pET15b vector and Ni-NTA column) (N); host or cells: E. coli Rosetta(DE3)pLysS

GRK1, 2, and 5 and PKA = test: Ssel selectivity score calculated from inhibition of GRK1, 2, 5 and PKA; details: selectivity score from inhibition of GRK1, 2, 5 and PKA; <0.5 selective
ROCK1 = details: relative to GSK180736A (substitution effect); cited from earlier work
224 kinases = system: 224 kinases; set-up: method as in ChEMBL database; details: ref ChEMBL database; cited from earlier work

| ΔTm at 10 µM (human GRK2S670A) | rank in the primary screen, GRK2 (human GRK2S670A) | ΔTm at 10 µM (bovine GRK5) | GRK1 Tm (GRK1 [1]) | GRK1 ΔTm (GRK1 [1]) | GRK2 Tm (GRK2 [2]) | GRK2 ΔTm (GRK2 [2]) | GRK5 Tm (GRK5 [3]) | GRK5 ΔTm (GRK5 [3]) | PKA Tm (protein kinase A (PKA)) | PKA ΔTm (protein kinase A (PKA)) | IC50 (GRK1 [4]) | IC50 (GRK2 [5]) | GRK2 fold (increase in potency relative to paroxetine) (GRK2 [5]) | IC50 (GRK5 [6]) | GRK5 fold (increase in potency relative to paroxetine) (GRK5 [6]) | IC50 (PKA) | Compound | Ssel (GRK1, 2, and 5 and PKA) | increase in potency of ROCK inhibition (ROCK1) | ΔTm, primary screen, GRK2 (human GRK2S670A) | further results |
| --- | --- | --- | --- | --- | --- | --- | --- | --- | --- | --- | --- | --- | --- | --- | --- | --- | --- | --- | --- | --- | --- |
| 3.78 °C | 6 | 2.29 °C | 23.2 °C | 3.3 °C | 49.0 °C | 11.4 °C | 27.3 °C | 0.6 °C | 45.9 °C | 0.5 °C | > 1000 µM | 2.51 µM | 0.50 fold | 631 µM | 0.20 fold | 200 µM | CC1=C(C(=O)Nc2ccc3[nH]ncc3c2)C(c2ccc(F)cc2)NC(c2ccc(C(F)(F)F)nc2)=N1 (stereo not shown) [GSK317354A] | 0.109 | 10 fold |  | less potent than GSK180736A against GRK2 (GRK2 [5]; relative to GSK180736A): about 1 log |
| 5.41 °C | 1 | 3.43 °C | 26.7 °C | 6.8 °C | 49.3 °C | 11.8 °C | 28.7 °C | 2.0 °C | 52.2 °C | 6.8 °C | 63.1 µM | 1 µM | 1.3 fold | 3.16 µM | 40 fold | 0.501 µM | CCn1c(-c2nonc2N)nc2c(C#CC(C)(C)O)nc(O[C@@H](CN)c3ccccc3)cc21 [GSK1007102B] | 0.917 |  | 5.4 °C | GRK1 fold (increase in potency relative to paroxetine) (GRK1 [4]): 6 fold; IC50 against PKA, in words (PKA): nanomolar; inhibition pattern in kinase cross-screening, in words (224 kinases): strong inhibition of many of the 221 kinases evaluated |

| Compound | ΔTm at 10 µM (human GRK2S670A) | rank in the primary screen, GRK2 (human GRK2S670A) | ΔTm at 10 µM (bovine GRK5) | GRK1 Tm (GRK1 [1]) | GRK1 ΔTm (GRK1 [1]) | GRK2 Tm (GRK2 [2]) | GRK2 ΔTm (GRK2 [2]) | GRK5 Tm (GRK5 [3]) | GRK5 ΔTm (GRK5 [3]) | PKA Tm (protein kinase A (PKA)) | PKA ΔTm (protein kinase A (PKA)) | IC50 (GRK1 [4]) | IC50 (GRK2 [5]) | GRK2 fold (increase in potency relative to paroxetine) (GRK2 [5]) | IC50 (GRK5 [6]) | GRK5 fold (increase in potency relative to paroxetine) (GRK5 [6]) | IC50 (PKA) | Ssel (GRK1, 2, and 5 and PKA) | increase in potency of ROCK inhibition (ROCK1) | ΔTm, primary screen, GRK2 (human GRK2S670A) | further results |
| --- | --- | --- | --- | --- | --- | --- | --- | --- | --- | --- | --- | --- | --- | --- | --- | --- | --- | --- | --- | --- | --- |
| CC1=C(C(=O)Nc2ccc3[nH]ncc3c2)C(c2ccc3ccccc3c2)CC(=O)N1 (stereo not shown) [GSK270822A] | 3.82 °C | 5 | 3.92 °C | 24.6 °C | 4.7 °C | 47.8 °C | 10.3 °C | 29.4 °C | 2.6 °C | 51.9 °C | 6.5 °C |  |  | 0.10 fold |  | 2.0 fold | 50.1 µM | 0.883 | 5 fold | 3.8 °C | GRK1 fold (increase in potency relative to paroxetine) (GRK1 [4]): 1 fold; pIC50 (PKA; read-out: IC50 against PKA): > 4.00 |
